Where two headings read alike, the source gives them in different places.
How the values were obtained:
[1] = system: HeLa cells; test: cells; format: cell-based;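 for Hela CellCycMod PI 4N summarized IC50: value tracks stimulation of 4N DNA content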
[2] = system: DLD-1; test: cells; format: cell-based; conditions: basal; for IC50: assay number 23, read-out: Basal_Viability ATP DLD-1 summarized IC50
[3] = system: SW480; test: cells; format: cell-based; conditions: basal; for IC50: assay number 24, read-out: Basal_Viability ATP SW480 summarized IC50
[4] = system: HCT116; test: cells; format: cell-based; conditions: basal; for IC50: assay number 25, read-out: Basal_Viability ATP HCT116 summarized IC50
[5] = system: HCT116 cells treated with a GSK3β inhibitor; test: cells; format: cell-based; conditions: for IC50: assay number 26, GSK3b inhibitor pretreated, read-out: GSK3b inh pretreated_Viability ATP HCT116 summarized IC50
[6] = system: Colo320; test: cells; format: cell-based; conditions: basal; for IC50: assay number 27, read-out: Basal_Viability ATP Colo 320 summarized IC50
[7] = system: HT-29; test: cells; format: cell-based; conditions: basal; for IC50: assay number 28, read-out: Basal_Viability ATP HT-29 summarized IC50
[8] = system: RKO; test: cells; format: cell-based; conditions: basal; for IC50: assay number 29, read-out: Basal_Viability ATP RKO summarized IC50
[9] = system: SNU-C1; test: cells; format: cell-based; conditions: basal; for IC50: assay number 30, read-out: Basal_Viability ATP SNU-C1 summarized IC50
[10] = target: T1, hp70S6K1 (RPS6KB1) (Homo sapiens, UniProt P23443); test: Cerep LANCE kinase assay hp70S6K1 (S1 assay 31); format: biochemical; conditions: for IC50: read-out: hp70S6K1 LANCE summarized IC50
T1 construct: purchased Cerep (LANCE kinase assay platform, contract assay)

[11] = target: T2, hKDR (Homo sapiens, UniProt P35968); test: Cerep LANCE kinase assay hKDR (S1 assay 32); format: biochemical; conditions: for IC50: read-out: hKDR LANCE summarized IC50
T2 construct: purchased Cerep (LANCE kinase assay platform, contract assay)

[12] = target: T3, hJAK2 (Homo sapiens, UniProt O60674); test: Cerep LANCE kinase assay hJAK2 (S1 assay 33); format: biochemical; conditions: for IC50: read-out: hJAK2 LANCE summarized IC50
T3 construct: purchased Cerep (LANCE kinase assay platform, contract assay)

[13] = target: T4, hGSK3b (Homo sapiens, UniProt P49841); test: Cerep LANCE kinase assay hGSK3b (S1 assay 34); format: biochemical; conditions: for IC50: read-out: hGSK3b LANCE summarized IC50
T4 construct: purchased Cerep (LANCE kinase assay platform, contract assay)

[14] = target: T5, hFLT3 (Homo sapiens, UniProt P36888); test: Cerep LANCE kinase assay hFLT3 (S1 assay 35); format: biochemical; conditions: for IC50: read-out: hFLT3 LANCE summarized IC50
T5 construct: purchased Cerep (LANCE kinase assay platform, contract assay)

[15] = system: endothelial tube formation in co-cultures of ECFCs and ADSCs treated with VEGF; test: cells; format: cell-based, human; conditions: for IC50: read-out: VEGF_ADSC\ECFC Angio CD31 TubeArea summarized IC50
[16] = system: ECFC/ADSC co-culture cell nuclei number; conditions: for IC50: read-out: VEGF_ADSC\ECFC Angio Hoechst NucArea summarized IC50
[17] = assay number 14, 2N, read-out: Hela CellCycMod PI 2N summarized IC50
[18] = assay number 16, 4N, read-out: Hela CellCycMod PI 4N summarized IC50
[19] = assay number 17, MI, read-out: Hela CellCycMod PI MI summarized IC50
[20] = assay number 18, cell number, read-out: Hela CellCycMod PI Cell Number summarized IC50
[21] = assay number 15, S phase, read-out: Hela CellCycMod PI S Phase summarized IC50

T5 sequence (P36888 27-993): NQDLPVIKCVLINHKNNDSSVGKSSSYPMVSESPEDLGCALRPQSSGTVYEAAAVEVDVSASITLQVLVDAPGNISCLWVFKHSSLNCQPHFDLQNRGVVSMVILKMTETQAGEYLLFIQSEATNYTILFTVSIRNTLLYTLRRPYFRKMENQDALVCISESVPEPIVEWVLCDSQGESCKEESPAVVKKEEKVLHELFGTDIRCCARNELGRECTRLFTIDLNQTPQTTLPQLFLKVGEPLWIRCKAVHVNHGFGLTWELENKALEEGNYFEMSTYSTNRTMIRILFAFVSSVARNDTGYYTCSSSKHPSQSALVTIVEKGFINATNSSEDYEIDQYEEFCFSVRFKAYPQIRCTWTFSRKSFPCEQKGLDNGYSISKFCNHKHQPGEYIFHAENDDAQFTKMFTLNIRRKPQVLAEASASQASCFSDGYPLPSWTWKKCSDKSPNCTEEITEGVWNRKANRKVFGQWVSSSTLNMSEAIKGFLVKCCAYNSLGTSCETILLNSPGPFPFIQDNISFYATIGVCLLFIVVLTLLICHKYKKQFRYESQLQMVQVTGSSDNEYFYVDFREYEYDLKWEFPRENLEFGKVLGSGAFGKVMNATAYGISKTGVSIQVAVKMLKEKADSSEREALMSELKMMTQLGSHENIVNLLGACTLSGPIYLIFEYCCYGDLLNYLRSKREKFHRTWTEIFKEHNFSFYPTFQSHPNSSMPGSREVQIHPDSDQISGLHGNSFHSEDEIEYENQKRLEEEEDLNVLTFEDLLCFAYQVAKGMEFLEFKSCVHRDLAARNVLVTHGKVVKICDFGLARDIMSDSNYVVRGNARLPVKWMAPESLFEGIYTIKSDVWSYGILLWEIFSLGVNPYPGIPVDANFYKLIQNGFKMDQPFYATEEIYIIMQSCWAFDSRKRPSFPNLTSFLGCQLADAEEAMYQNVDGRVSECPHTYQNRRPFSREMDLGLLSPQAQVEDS
T3 sequence (O60674 whole entry): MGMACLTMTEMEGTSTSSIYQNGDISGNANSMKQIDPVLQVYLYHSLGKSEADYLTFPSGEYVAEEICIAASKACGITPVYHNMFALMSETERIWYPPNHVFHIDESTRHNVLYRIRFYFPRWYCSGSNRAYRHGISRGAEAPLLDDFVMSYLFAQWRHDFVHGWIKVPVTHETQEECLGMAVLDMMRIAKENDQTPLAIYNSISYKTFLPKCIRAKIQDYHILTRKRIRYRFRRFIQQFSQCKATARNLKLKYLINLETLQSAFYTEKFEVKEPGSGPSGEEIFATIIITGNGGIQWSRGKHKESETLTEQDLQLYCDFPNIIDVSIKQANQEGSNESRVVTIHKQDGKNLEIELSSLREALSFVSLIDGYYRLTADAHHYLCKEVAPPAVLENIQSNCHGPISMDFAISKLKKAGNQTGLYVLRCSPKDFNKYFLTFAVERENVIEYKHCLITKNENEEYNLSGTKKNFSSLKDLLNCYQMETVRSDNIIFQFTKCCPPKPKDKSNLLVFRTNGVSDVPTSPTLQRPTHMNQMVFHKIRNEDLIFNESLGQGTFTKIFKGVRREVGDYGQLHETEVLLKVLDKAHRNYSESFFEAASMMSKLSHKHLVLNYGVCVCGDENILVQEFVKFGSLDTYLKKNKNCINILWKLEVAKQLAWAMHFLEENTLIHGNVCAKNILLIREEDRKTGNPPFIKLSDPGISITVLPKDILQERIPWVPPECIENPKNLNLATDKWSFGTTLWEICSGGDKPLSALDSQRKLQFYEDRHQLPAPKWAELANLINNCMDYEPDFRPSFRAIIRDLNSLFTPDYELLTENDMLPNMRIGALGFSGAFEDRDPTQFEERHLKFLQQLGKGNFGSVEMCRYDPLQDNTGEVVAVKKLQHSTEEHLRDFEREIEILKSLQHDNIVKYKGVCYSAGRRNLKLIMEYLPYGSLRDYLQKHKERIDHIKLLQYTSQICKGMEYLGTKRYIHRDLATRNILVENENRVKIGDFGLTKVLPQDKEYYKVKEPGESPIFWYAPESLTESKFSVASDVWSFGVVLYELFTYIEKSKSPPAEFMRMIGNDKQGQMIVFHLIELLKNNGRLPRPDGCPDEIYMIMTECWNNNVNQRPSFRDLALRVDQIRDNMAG
T2 sequence (P35968 20-1356): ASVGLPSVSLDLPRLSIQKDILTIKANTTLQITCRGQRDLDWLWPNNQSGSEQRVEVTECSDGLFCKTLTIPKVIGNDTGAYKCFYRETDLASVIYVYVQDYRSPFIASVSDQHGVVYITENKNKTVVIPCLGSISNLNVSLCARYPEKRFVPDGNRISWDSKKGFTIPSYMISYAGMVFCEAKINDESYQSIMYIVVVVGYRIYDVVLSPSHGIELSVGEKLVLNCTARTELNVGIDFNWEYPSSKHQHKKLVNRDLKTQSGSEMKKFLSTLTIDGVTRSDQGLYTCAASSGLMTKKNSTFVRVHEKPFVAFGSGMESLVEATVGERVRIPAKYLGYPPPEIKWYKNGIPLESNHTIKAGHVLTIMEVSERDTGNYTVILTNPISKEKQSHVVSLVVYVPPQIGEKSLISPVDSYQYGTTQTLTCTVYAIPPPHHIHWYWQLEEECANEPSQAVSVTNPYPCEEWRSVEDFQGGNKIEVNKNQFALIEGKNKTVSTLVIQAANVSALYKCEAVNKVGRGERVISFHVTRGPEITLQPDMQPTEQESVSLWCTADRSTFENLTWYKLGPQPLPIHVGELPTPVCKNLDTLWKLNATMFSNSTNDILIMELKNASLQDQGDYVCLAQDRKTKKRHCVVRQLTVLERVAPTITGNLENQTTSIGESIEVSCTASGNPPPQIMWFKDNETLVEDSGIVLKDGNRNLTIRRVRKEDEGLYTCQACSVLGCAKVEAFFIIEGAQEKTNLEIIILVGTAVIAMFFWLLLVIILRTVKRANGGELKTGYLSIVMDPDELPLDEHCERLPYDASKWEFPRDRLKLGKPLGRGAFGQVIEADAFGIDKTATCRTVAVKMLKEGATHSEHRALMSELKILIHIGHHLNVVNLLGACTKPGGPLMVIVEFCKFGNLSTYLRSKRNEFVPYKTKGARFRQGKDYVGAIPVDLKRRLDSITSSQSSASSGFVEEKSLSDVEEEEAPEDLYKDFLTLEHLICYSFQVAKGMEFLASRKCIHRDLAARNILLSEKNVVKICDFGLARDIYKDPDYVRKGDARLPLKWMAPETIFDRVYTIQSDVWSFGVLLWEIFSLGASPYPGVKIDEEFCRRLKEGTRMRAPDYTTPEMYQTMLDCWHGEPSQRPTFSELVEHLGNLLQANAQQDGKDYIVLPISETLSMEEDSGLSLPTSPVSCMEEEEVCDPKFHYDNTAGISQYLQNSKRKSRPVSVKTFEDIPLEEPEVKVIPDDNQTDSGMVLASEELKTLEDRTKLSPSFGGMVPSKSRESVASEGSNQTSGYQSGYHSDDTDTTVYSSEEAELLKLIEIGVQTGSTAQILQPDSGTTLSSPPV
T4 sequence (P49841 whole entry): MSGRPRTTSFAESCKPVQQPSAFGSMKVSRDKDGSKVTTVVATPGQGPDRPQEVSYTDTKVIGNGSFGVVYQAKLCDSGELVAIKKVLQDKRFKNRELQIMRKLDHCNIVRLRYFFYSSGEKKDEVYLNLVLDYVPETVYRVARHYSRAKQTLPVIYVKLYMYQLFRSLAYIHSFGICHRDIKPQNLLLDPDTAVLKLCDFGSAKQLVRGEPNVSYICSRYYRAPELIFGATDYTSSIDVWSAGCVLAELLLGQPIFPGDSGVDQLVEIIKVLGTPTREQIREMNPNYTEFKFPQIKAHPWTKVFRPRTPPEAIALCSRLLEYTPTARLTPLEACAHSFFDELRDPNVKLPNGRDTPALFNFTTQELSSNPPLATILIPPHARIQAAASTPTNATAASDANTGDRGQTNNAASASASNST
T1 sequence (P23443 whole entry): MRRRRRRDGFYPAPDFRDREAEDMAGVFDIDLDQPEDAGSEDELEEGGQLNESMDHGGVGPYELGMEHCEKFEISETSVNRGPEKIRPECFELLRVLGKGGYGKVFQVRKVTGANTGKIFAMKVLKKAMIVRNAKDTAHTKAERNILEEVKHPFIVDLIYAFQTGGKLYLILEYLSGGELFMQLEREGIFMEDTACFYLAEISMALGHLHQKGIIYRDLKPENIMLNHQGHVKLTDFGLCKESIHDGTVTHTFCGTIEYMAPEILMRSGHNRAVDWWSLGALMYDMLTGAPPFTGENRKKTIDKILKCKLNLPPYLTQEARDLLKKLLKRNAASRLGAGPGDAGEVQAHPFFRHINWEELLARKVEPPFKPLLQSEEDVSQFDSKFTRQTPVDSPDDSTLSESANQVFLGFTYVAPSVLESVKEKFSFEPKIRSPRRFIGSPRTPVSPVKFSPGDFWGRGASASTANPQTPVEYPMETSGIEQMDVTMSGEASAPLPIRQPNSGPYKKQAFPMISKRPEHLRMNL

Row | Structure (SMILES) | IC50 [15] [nM] | IC50 [1, 17] [nM] | IC50 [1, 18] [nM] | IC50 [1, 19] [nM] | IC50 [1, 20] [nM] | IC50 [2] [nM] | IC50 [3] [nM] | IC50 [4] [nM] | IC50 [6] [nM] | IC50 [7] [nM] | IC50 [8] [nM] | IC50 [9] [nM] | IC50 ([10]; assay number 31) [nM] | IC50 ([11]; assay number 32) [nM] | IC50 ([12]; assay number 33) [nM] | IC50 ([13]; assay number 34) [nM] | IC50 ([14]; assay number 35) [nM] | IC50 [16] [nM] | IC50 [1, 21] [nM] | IC50 [5] [nM] | other results
1 | Cn1cnc([N+](=O)[O-])c1Sc1ncnc2nc[nH]c12 [NCGC00015060-18] | – | – | – | – | – | – | – | – | – | – | – | – | – | – | – | – | – | – | – | – | IC50/EC50, Hela CellCycMod PI 2N (assay number 14) ([1]; 2N): > 10000 nM; IC50/EC50, Hela CellCycMod PI 4N (assay number 16) ([1]; 4N): > 10000 nM; IC50/EC50, Hela CellCycMod PI Cell Number (assay number 18) ([1]; Cell Number): > 10000 nM; IC50/EC50, Hela CellCycMod PI MI (assay number 17) ([1]; MI): > 10000 nM; IC50/EC50, Hela CellCycMod PI S Phase (assay number 15) ([1]; S Phase): > 10000 nM; IC50/EC50, Basal_Viability ATP DLD-1 (assay number 23) [2]: 363.5 nM; IC50/EC50, Basal_Viability ATP SW480 (assay number 24) [3]: 9435.3 nM; IC50/EC50, Basal_Viability ATP HCT116 (assay number 25) [4]: 207.4 nM; IC50/EC50, GSK3b inh pretreated_Viability ATP HCT116 (assay number 26) ([5]; GSK3b inh pretreated): 623.2 nM; IC50/EC50, Basal_Viability ATP Colo 320 (assay number 27) [6]: 10340.2 nM; IC50/EC50, Basal_Viability ATP HT-29 (assay number 28) [7]: > 20000 nM; IC50/EC50, Basal_Viability ATP RKO (assay number 29) [8]: 2661 nM; IC50/EC50, Basal_Viability ATP SNU-C1 (assay number 30) [9]: > 20000 nM; IC50/EC50, hp70S6K1 LANCE (assay number 31) [10]: > 20000 nM; IC50/EC50, hKDR LANCE (assay number 32) [11]: > 20000 nM; IC50/EC50, hJAK2 LANCE (assay number 33) [12]: > 20000 nM; IC50/EC50, hGSK3b LANCE (assay number 34) [13]: > 20000 nM; IC50/EC50, hFLT3 LANCE (assay number 35) [14]: > 20000 nM
2 | COc1cc(-c2ccc(=O)[nH]n2)ccc1OC(F)F [NCGC00016106-13] | – | – | – | – | – | – | – | – | – | – | – | – | – | – | – | – | – | – | – | – | VEGF_ADSC\ECFC Angio CD31 TubeArea IC50/EC50 [15]: 1220.5 nM; Hela CellCycMod PI 2N IC50/EC50 ([1]; assay number 14, 2N): > 10000 nM; Hela CellCycMod PI S Phase IC50/EC50 ([1]; assay number 15, S phase): > 10000 nM; Hela CellCycMod PI 4N IC50/EC50 ([1]; assay number 16, 4N): > 10000 nM; Hela CellCycMod PI MI IC50/EC50 ([1]; assay number 17, MI): > 10000 nM; Hela CellCycMod PI Cell Number IC50/EC50 ([1]; assay number 18, cell number): 9.2 nM; hp70S6K1 LANCE IC50/EC50 ([10]; assay number 31): > 20000 nM; hKDR LANCE IC50/EC50 ([11]; assay number 32): > 20000 nM; hJAK2 LANCE IC50/EC50 ([12]; assay number 33): > 20000 nM; hGSK3b LANCE IC50/EC50 ([13]; assay number 34): > 20000 nM; hFLT3 LANCE IC50/EC50 ([14]; assay number 35): > 20000 nM; VEGF_ADSC\ECFC Angio Hoechst NucArea IC50/EC50 [16]: > 10000 nM
3 | Oc1c(I)cc(I)c2cccnc12 [NCGC00018098-07] | 2390 | > 10000 | > 10000 | > 10000 | > 10000 | 17.8 | 3.6 | 41 | 21.3 | 705 | 22.7 | 38.7 | > 20000 | > 20000 | > 20000 | > 20000 | > 20000 | > 10000 | – | – | –
4 | Oc1c(Cl)cc(Cl)cc1Sc1cc(Cl)cc(Cl)c1O [NCGC00018163-10] | 1790 | > 10000 | > 10000 | > 10000 | > 10000 | 1 | 1 | 1 | 15 | 996 | 1 | 8.67 | > 20000 | – | > 20000 | 6570 | > 20000 | > 10000 | > 10000 | 1 | –
5 | COc1cc([C@@H]2c3cc4c(cc3[C@H](O)[C@H]3COC(=O)[C@H]23)OCO4)cc(OC)c1OC [NCGC00022001-13] | 8.1 | 8.9 | 7.7 | 11.2 | 4.8 | – | – | – | – | – | – | – | > 20000 | > 20000 | > 20000 | > 20000 | > 20000 | > 10000 | > 10000 | – | –
6 | CCCCCCCCCCCCCCCC[n+]1ccccc1 [NCGC00091023-06] | – | 1250 | > 10000 | 515 | 404 | 1930 | 1610 | 1190 | 1640 | 2290 | 1270 | 934 | > 20000 | – | > 20000 | > 20000 | > 20000 | 3010 | > 10000 | 2290 | –

From publication PMC4503722, “Novel Phenotypic Outcomes Identified for a Public Collection of Approved Drugs from a Publicly Accessible Panel of Assays” (PLoS ONE, 2015)
